Laboratory results as given in patent US20100119458A1, “Compositions Containing Metal Oxide Particles and Their Use” (Spago Imaging AB, priority 2007, published 2010).

Assay: MRI measurements of relaxation rates and relaxivities
Format: physicochemical
Text: where ρ=spin density, TE=echo time and TR=repetition time. Contrast agents that are paramagnetic are used to improve the resolution in the images. They have effects on both T1 and T2 but some agents have predominant effects on either T1 or T2. […] Gadolinium (III+) has a predominant effect on T1 and therefore has been used a positive contrast agent (increased MR signal). Iron (III+) has a predominant effect on T2 and has therefore been used as a negative contrast agent (decreased MR signal). The relaxation rate (1/Ti, i=1,2 for hydrogen) observed is proportional to the concentration C of a contrast agent used, i.e.
1/Ti(observed)=1/Ti(inherent)+riC
where 1/Ti (observed) is the relaxation rate in the presence of the contrast agent, 1/Ti (inherent) is the inherent tissue relaxation rate, and the proportionality constant ri is called the relaxivity constant for the contrast agent concerned. See Engström et al (Magn Reson Mater Phy 19 (2006) 180-186 and WO 2006031190 (Uvdal et al) and references cited therein.
15 MRI measurements: See Engström et al., Magn Reson Mater Phy, 19 (2006) 180-186.

For `O=C([O-])CN(CCN(CC(=O)[O-])CC(=O)O)CCN(CC(=O)[O-])CC(=O)O.[Gd+3]` [Gd^3+-DTPA], the “1/T1 (1 mM)” value (relaxation rate at 1 mM) was 0.005 ms^−1 and the 1/T2 (relaxation rate, stated in words) was “lower values”.
